PMC9139979, “Features of ZED1227: The First-In-Class Tissue Transglutaminase Inhibitor Undergoing Clinical Evaluation for the Treatment of Celiac Disease” (Cells, 2022)
Where “and” joins values, the source holds several entries; their conditions need not be identical. Equal entries are not always repeated. Entries after “also recorded” stand apart in the source; their conditions may differ. Where two headings read alike, the source gives them in different places.

Tests used:
[1] = tested on: adult patients with well-controlled celiac disease; parameters: method as in PMID 34192430; details: cited from earlier work
[2] = target: T1, hTG2 (Homo sapiens, UniProt P21980); assay: Fluorescent transamidation assay (DCC-assay), hTG2; format: biochemical; details: recombinant human TG2, transamidation assay
T1 construct: purchased Zedira T022
T1 sequence (P21980 1-687): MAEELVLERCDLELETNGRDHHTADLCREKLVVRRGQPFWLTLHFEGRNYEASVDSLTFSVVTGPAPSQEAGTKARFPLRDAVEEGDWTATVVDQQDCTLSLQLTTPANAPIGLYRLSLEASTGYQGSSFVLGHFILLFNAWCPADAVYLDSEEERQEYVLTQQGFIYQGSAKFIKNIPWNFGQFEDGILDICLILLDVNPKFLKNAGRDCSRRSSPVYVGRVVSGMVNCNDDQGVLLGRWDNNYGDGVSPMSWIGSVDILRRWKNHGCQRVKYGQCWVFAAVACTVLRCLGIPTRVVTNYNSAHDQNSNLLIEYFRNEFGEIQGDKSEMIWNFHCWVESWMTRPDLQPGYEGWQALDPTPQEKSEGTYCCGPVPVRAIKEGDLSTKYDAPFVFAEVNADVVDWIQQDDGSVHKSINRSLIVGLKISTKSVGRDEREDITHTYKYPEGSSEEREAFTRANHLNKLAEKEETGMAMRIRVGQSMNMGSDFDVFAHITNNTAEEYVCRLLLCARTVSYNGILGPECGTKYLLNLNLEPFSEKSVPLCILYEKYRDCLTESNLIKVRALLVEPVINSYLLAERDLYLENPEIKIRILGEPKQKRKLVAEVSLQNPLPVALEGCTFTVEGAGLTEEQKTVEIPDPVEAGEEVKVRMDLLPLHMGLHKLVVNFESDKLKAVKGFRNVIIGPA
Method: Inhibition data were determined using the fluorescent transamidation assay (dansylcadaverine incorporation into glutamine-donor substrate N,N-dimethyl casein, DCC-assay). Briefly, to 15 μL of ZED1227 solution (dissolved and serial diluted in 2% (v/v) DMSO/assay buffer), 285 μL assay buffer [47.5 mM tris(hydroxymethyl)aminomethane, 9.5 mM CaCl2, 9.5 mM glutathione, 2.4% (v/v) glycerol, 190 mM NaCl, pH 8.0] containing dansylcadaverine (15.9 μM), N,N-dimethyl casein (3.8 μM) and the indicated recombinant transglutaminase enzyme [0.95 μg/mL hTG1 (T035), 0.81 μg/mL hTG2 (T022), 0.83 μg/mL hTG6 (T021), all from Zedira] were added, mixed and the kinetic measurement started immediately. In the case of hFXIII-A2 (0.83 μg/mL, T027, Zedira), the assay buffer contained human α-thrombin (5.2 × 10^−3 U/μL, T056, Zedira). The mixture was incubated for 20 min at room temperature to activate FXIII. In the case of hTG3a (0.81 μg/mL, T013, Zedira), full enzymatic activity was obtained by incubation for 80 min at 37 °C in assay buffer before addition of the inhibitor and start of the kinetics.
Fluorescence emission was continuously monitored for 30 min at λem = 500 nm (λex = 330 nm) and 37 °C using a CLARIOstar fluorescence plate reader (BMG Labtech, Ortenberg, Germany). All measurements were performed in triplicate. The respective IC50 (and IC90 for TG2) values were calculated by non-linear regression using the MARS software package (BMG Labtech). An irreversible-acting inhibitor, such as ZED1227, should, correctly, be characterized by the second-order rate constant k2nd, as detailed by Keillor [46]. However, such data are rather abstract and difficult to comprehend.
To facilitate comparability during lead structure optimization and to roughly estimate concentrations needed at the target site, the apparent IC50 values (calculated by four-parameter non-linear fit by MARS software) for irreversible inhibitors are more instructive and are therefore reported. Further, we report the potency of commercially available reference inhibitors Z006 (“Z-DON”), Z013 (ZED754), and T101 (all Zedira). To gain deeper mechanistic insight, we discuss the second-order rate constants (k2nd) published for Z006 and ZED754 in relation to their respective IC50 values.

[3] = Solubility in PBS (pH 7.4) and diluted HCl (pH 1.1) by HPLC; format: physicochemical
[4] = tested on: Huh7 cells; assay: EZ4U viability assay, Huh7; format: cell-based; details: up to 1,000 μM, 48 h
Method: (§1) Cytotoxicological analysis of ZED1227 was performed using Huh7 (human liver carcinoma, CLS Cell Lines Service GmbH, Eppelheim, Germany) and Caco-2 cells (human epithelial colorectal adenocarcinoma, Sigma Aldrich, Taufkirchen, Germany) with respect to the effect on proliferation and viability, according to the assay protocols provided by the manufacturers of the respective kits. The Cell Proliferation ELISA (BrdU, colorimetric) was purchased from Roche (Mannheim, Germany), whereas the Cell Proliferation and Cytotoxicity Assay EZ4U was purchased from Biomedica (Vienna, Austria). […]
(§2) The EZ4U assay (determination of viability) was performed by incubating the cells with ZED1227 working solution (1% DMSO in culture medium) up to a concentration of 1,000 μM for 48 h, followed by addition of a yellow tetrazolium reagent (not further specified) into the culture medium. The non-toxic tetrazolium salts were reduced to red-colored formazan which was quantified spectrophotometrically. […]

[5] = tested on: Huh7 cells; assay: BrdU cell proliferation ELISA, Huh7; format: cell-based, human; details: up to 1,000 μM, 24 h + 24 h
Method: Cytotoxicological analysis of ZED1227 was performed using Huh7 (human liver carcinoma, CLS Cell Lines Service GmbH, Eppelheim, Germany) and Caco-2 cells (human epithelial colorectal adenocarcinoma, Sigma Aldrich, Taufkirchen, Germany) with respect to the effect on proliferation and viability, according to the assay protocols provided by the manufacturers of the respective kits. The Cell Proliferation ELISA (BrdU, colorimetric) was purchased from Roche (Mannheim, Germany), whereas the Cell Proliferation and Cytotoxicity Assay EZ4U was purchased from Biomedica (Vienna, Austria). Briefly, Caco-2 cells (in MEM with 1% non-essential amino acid solution, both Sigma Aldrich (Taufkirchen, Germany), 10% fetal bovine serum, 2 mM L-glutamine, 100 U/mL penicillin–streptomycin, all from Gibco) or Huh7 cells (in DMEM low glucose, Sigma Aldrich (Taufkirchen, Germany), 10% fetal bovine serum, 1 mM sodium pyruvate, 100 U/mL penicillin–streptomycin, all from Gibco) were cultured in 96 well plates, using 2.5 μg/mL cycloheximide and 0.2 μg/mL camptothecin-treated cells as positive control. In the 5-bromo-2′-deoxyuridine (BrdU) assay (determination of cell proliferation), the cells were incubated with ZED1227 working solution (1% DMSO in culture medium) up to a concentration of 1,000 μM for 24 h, followed by addition of BrdU into the culture medium and further culturing for 24 h. […]

[6] = tested on: Caco-2 cells; assay: EZ4U viability assay, Caco-2; format: cell-based; details: up to 1,000 μM, 48 h
Method: as §1, §2

What does the source list for `CCC(CC)CNC(=O)Cn1cccc(NC(=O)[C@H](CC/C=C/C(=O)OC)NC(=O)c2cncn2C)c1=O` [ZED1227, (S,E)-Methyl 7-(1-(2-(2-ethylbutylamino)-2-oxoethyl)-2-oxo-1,2-dihydropyridin-3-ylamino)-6-(1-methyl-1H-imidazole-5-carboxamido)-7-oxohept-2-enoate]?
Effect on gluten-induced duodenal mucosal injury, phase 2a ([1]; 6-week treatment, 10, 50, 100 mg oral, 3 g daily gluten challenge): protect celiac patients from gluten-induced mucosal injury; also recorded: all dose levels attenuated gluten-induced duodenal mucosal injury; also recorded: protected celiac patients from mucosal damage; Tolerability in gluten challenge study ([1]; celiac patients, gluten challenge): well-tolerated; IC90 [2]: 300 nM; IC50 ([2]; apparent IC50 of irreversible inhibitor, read-out: App. IC50 hTG2): 53 nM; solubility ([3]; phosphate-buffered saline, aqueous buffer, PBS pH 7.4, read-out: Solubility at pH 7.4): 100 µM and 50 µg/mL; solubility ([3]; simulated gastric fluid, diluted HCl pH 1.1, read-out: Solubility at pH 1.1): 48900 µM and 25900 µg/mL; Cytotoxicity: Viability, Huh7 cells [4]: not cytotoxic up to 1,000 μM; also recorded: no effect up to 1,000 μM no effect up to 1,000 μM no effect up to 1,000 μM no effect up to 1,000 μM; Cytotoxicity: Proliferation, Huh7 cells [5]: nor did it affect cell proliferation rates; also recorded: no effect up to 1,000 μM no effect up to 1,000 μM no effect up to 1,000 μM no effect up to 1,000 μM; Cytotoxicity: Viability, Caco-2 cells [6]: not cytotoxic up to 1,000 μM; also recorded: no effect up to 1,000 μM no effect up to 1,000 μM no effect up to 1,000 μM no effect up to 1,000 μM
